From publication PMC7656518 (ACS chemical biology, 2018) come the findings set out here.

The target in one data set is T1, hCT(a) receptor (Homo sapiens, UniProt P30988).
T1 sequence (P30988 25-474): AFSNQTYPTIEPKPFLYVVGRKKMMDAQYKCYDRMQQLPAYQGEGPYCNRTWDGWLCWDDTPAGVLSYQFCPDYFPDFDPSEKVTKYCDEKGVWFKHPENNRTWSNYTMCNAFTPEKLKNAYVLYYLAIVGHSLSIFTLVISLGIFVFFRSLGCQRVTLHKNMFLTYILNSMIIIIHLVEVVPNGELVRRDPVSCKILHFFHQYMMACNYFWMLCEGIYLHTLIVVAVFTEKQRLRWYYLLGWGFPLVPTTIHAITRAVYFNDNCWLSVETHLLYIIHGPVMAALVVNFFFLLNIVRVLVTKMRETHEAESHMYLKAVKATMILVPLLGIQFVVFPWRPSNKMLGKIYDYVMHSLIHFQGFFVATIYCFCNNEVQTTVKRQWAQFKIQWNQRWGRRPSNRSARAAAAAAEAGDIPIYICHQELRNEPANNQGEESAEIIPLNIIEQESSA
Description: cAMP production. Format: cell-based. (cAMP levels reflect the balance of adenylyl cyclase and phosphodiesterase activity.)

The target of another data set is hAMY1(a) receptor (Homo sapiens, UniProt O60894+P30988). The data set can be described thus: cAMP production. Format: cell-based.
Another data set addresses hAMY2(a) receptor (Homo sapiens, UniProt O60895+P30988). The data set can be described thus: cAMP production. Format: cell-based.
The target of another data set is T2, hAMY3(a) receptor (Homo sapiens, UniProt O60896+P30988).
T2 sequence (P30988 25-474): T1 sequence (P30988 25-474)
T2 sequence (O60896 24-148 partner): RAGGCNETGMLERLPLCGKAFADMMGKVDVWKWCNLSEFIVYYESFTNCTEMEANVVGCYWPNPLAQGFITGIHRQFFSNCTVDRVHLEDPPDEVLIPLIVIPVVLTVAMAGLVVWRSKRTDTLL
Description: cAMP production. Format: cell-based.

The subject of data set [1] is hCT(a), hAMY1(a), hAMY2(a), hAMY3(a) receptors. Description: cAMP production, overall statement for the four amylin-responsive receptors. Conditions: stimulation of cAMP production at hCT(a). Format: cell-based, human.
A short description of data set [2]: Thioflavin-T fluorescence amyloid formation kinetics and TEM in PBS. Format: physicochemical. Conditions: PBS (10 mM phosphate 140 mM KCl) pH 7.4.
A short description of data set [3]: Amyloid formation in presence of anionic large unilamellar vesicles. Format: physicochemical. Conditions: LUV's 25% POPS / 75% POPC, final concentration 400 μM.
A further data set deals with rat INS-1/832-13 β-cells. Description: Alamar Blue β-cell viability. Conditions: 30 μM peptide.
Data set [4] can be described thus: Thioflavin-T fluorescence amyloid formation kinetics and TEM in Tris buffer.

Positions of bridges follow the written chain, without caps; N, C: chain ends. Residues, ends and D or L forms follow the SMILES beside them.

Sequence of hAMY2(a) receptor (O60895 43-175 partner, one chain of several): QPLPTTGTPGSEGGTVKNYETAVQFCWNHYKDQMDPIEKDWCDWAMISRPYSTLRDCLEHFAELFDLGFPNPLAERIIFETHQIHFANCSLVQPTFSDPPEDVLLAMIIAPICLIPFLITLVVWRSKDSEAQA
Sequence of hAMY1(a) receptor (O60894 27-148 partner, one chain of several): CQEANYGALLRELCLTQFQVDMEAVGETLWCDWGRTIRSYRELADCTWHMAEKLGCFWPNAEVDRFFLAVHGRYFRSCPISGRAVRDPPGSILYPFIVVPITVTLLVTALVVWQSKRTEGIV

For `CC[C@H](C)[C@H](NC(=O)[C@H](C)NC(=O)CNC(=O)[C@H](CC(C)C)NC(=O)[C@H](CCCCN)NC(=O)[C@H](CC(N)=O)NC(=O)[C@H](CO)NC(=O)[C@H](CO)NC(=O)[C@@H]1CCCN1C(=O)[C@H](C)NC(=O)[C@H](CC(C)C)NC(=O)[C@H](Cc1ccccc1)NC(=O)[C@H](CC(N)=O)NC(=O)[C@H](C)NC(=O)[C@H](CC(C)C)NC(=O)[C@H](CCCNC(=N)N)NC(=O)[C@H](CCC(N)=O)NC(=O)[C@@H](NC(=O)[C@H](CCC(=O)O)NC(=O)[C@@H]1CSSC[C@H](NC(=O)[C@@H](N)CCCCN)C(=O)NCC(=O)N[C@@H]([C@@H](C)O)C(=O)N[C@@H](C)C(=O)N[C@@H]([C@@H](C)O)C(=O)N1)[C@@H](C)O)C(=O)N[C@@H](Cc1ccccc1)C(=O)N[C@@H](CO)C(=O)N1CCC[C@H]1C(=O)N[C@H](C(=O)N[C@@H](CCCCN)C(=O)N[C@@H](CCSC)C(=O)NCC(=O)N[C@@H](CO)C(=O)N[C@@H](CC(N)=O)C(=O)N[C@H](C(=O)N[C@@H](Cc1ccc(O)cc1)C(N)=O)[C@@H](C)O)[C@@H](C)O` [b-amylin] (H-KCGTATCETQRLANFLAPSSNKLGAIFSPTKMGSNTY-NH2; disulfide 2-7; N-terminus assumed), the maximal response (Emax) at hCT(a) receptor (COS-7) amounted to 62.9 ± 8.25%; on hAMY1(a) receptor (COS-7), 83.1 ± 10.6%; on hAMY2(a) receptor (COS-7), 73.9 ± 4.27%; on hAMY3(a) receptor (COS-7) it was 62.4 ± 9.31%. Moreover, the EC50 was 1550 nM on hCT(a) receptor (SEM), 912 nM at hAMY1(a) receptor (SEM), 1170 nM at hAMY2(a) receptor (SEM) and 1350 nM at hAMY3(a) receptor (SEM). For the same molecule, the agonist character entry at hCT(a) receptor (hCT(a), cAMP production) is given as “partial agonist”; on hAMY1(a) receptor (hAMY1(a), cAMP production) it was “full agonist”. Besides, the Fold-change is on record as above −400 at hCT(a) receptor (potency of b-amylin relative to h-amylin at hCT(a)), above −5000 at hAMY1(a) receptor (potency of b-amylin relative to h-amylin at hAMY1(a)), above −600 on hAMY2(a) receptor (potency of b-amylin relative to h-amylin at hAMY2(a)) and above −2000 on hAMY3(a) receptor (potency of b-amylin relative to h-amylin at hAMY3(a)). The “fold less potent than h-amylin” value in data set [1] is on record as “at least 300 fold”. The “amyloid fibrils by TEM” value in [2] was “no amyloid fibrils were detected”. For the same molecule, the “increase in thioflavin-T fluorescence signal” value in [2] (7 days of incubation) is listed as “no significant increase in thioflavin-T fluorescence signal was observed”; in data set [4] (16 μM peptide, 32 μM thioflavin-T, pH 7.4, 25°C, 20 mM Tris, 6 days of incubation) it was “no increase in thioflavin-T fluorescence signal was observed”. In addition, the “amyloid formation in presence of LUV's” value in data set [3] is on record as “no amyloid formation was detected”. Further, the “toxicity (in words)” value is on record as “did not exhibit any toxicity” in the data set on rat INS-1/832-13 β-cells (24 h incubation) and “not toxic” in the data set on rat INS-1/832-13 β-cells (84 h incubation). In addition, the “amyloid formation at a range of peptide concentrations” value in data set [4] (20 mM Tris pH 7.4, highest concentration examined 64 μM) is on record as “no amyloid was detected”.

A word on the Emax: it is the greatest response seen or fitted, relative to the assay's reference. A word on the EC50: it is the concentration that produces a half-maximal response. Read a low EC50 as higher potency in that assay.
